Literature values in US10512667B2, “Compositions and methods for treating conditions related to adrenocortical activity and/or excessive steroid production” (The Regents of the University of Michigan, priority 2017, dated 2019).

Columns and labels:
adrenal cortex = details: WHHL rabbits; cited from earlier work
MDR1 = target: T1, MDR1 (Homo sapiens, UniProt P08183); details: cited from earlier work
T1 construct: measured the accumulation of doxorubicin in H295R cells; endogenous in cells; host or cells: H295R adrenocortical carcinoma cells

## Cc1ccc2oc(CN(Cc3ccccc3)C(=O)Nc3c(F)cc(F)cc3F)c(-c3ccc(Cl)cc3)c2c1 [FR145237]
Adrenal cortex
  adrenalytic effect in LDL deficient animals: resistant

## O[C@@H](COc1cccc2ncccc12)CN1CCN([C@@H]2c3ccccc3[C@@H]3[C@H](c4ccccc42)C3(F)F)CC1 [zosuquidar]
MDR1
  MDR1 inhibition: selectively inhibits MDR1
